This note sets out measurements from patent US20210379046A1, “Methods of Treating Diseases Using Kinase Modulators” (Memorial Sloan Kettering Cancer Center, priority 2018, published 2021).

One series deals with LC-2/ad cells. As to the kind of experiment: Flow cytometry of cell surface HLA on LC-2/ad cells. Type of series: cell-based, human. The following applies: 72 hrs. Here is the method:
(§1) If adherent cells, they were seeded one day before treatment.
(Flow cytometry measures light scatter and fluorescence of single cells or particles in a stream.)

The subject of a further series is TT cells. In words: Flow cytometry of cell surface HLA on TT cells. Format: cell-based, human. The following applies: 72 hrs. On the procedure: as §1
Another series relates to SUDHL-1 cells. As to the kind of experiment: Flow cytometry of cell surface HLA on SUDHL-1 cells. Format: cell-based, human. The following applies: SUDHL-1, 72 hrs, increasing concentrations. Here is the method: as §1
The test system of series [1] is HLA-A, beta-2-microglobulin, TAP1, TAP2 in Karpas 299 and SUDHL-1 cells. In words: Western blot and qPCR of HLA and antigen processing machinery in ALCL lines. Format: cell-based, human. The following applies: for HLA and antigen processing machinery transcript levels (qPCR): Karpas 299 and SUDHL-1, 48 hrs. On the procedure: (§2) Cells were seeded in a 60 mm dish or 6 well plates. After the appropriate time point, cells were harvested and lysed and protein was quantified by a Lowry assay (Bio-Rad DC Protein Assay; #5000116). Protein levels were normalized and run on SDS PAGE gels (Bio-Rad). Protein was transferred to a nitrocellulose membrane using semi-dry transfer. Membrane was blocked and incubated with respective antibodies. When needed, secondary antibodies with HRP were incubated for 1 hr.
(§3) Cells were seeded in a 60 mm dish or 6 well plates. After the appropriate time point, cells were harvested, lysed in RIPA buffer (Thermo Instruments) and protein concentration was quantified by a Lowry assay (using the Bio-Rad DC Protein Assay; #5000116 on a Spectramax device from Molecular Devices). Protein loading levels were equalized per lane and separated on SDS gels (Bio-Rad). Protein was transferred to a nitrocellulose membrance using semi-dry transfer (BioRad). Membranes were blocked with Omniblock (American Bio) and incubated with respected antibodies. When needed, secondary antibodies with HRP were incubated for 1 hr.
Data were normalized to baseline expression of each analyzed gene separately.
For orientation: In western blotting, separated proteins are transferred to a membrane and probed.

A further series relates to Karpas 299 cells. As to the kind of experiment: Flow cytometry of cell surface HLA and checkpoint ligands on Karpas 299 cells. Format: cell-based, human. The following applies: for cell surface HLA-A,B,C: Karpas 299, 72 hrs, increasing concentrations. Here is the method:
as §1

The next series concerns pERK in Karpas 299 cells. In words: Western blot of pERK in Karpas 299 cells. Format: cell-based, human. The following applies: Karpas 299, 3 hrs. Here is the method: as §2, §3
In the next series the test system is pERK in H2228 cells. As to the kind of experiment: Western blot of pERK in H2228 cells. The following applies: H2228, 100 nM. Type of series: cell-based, human. On the procedure:
as §2, §3

In series [2] the test system is Karpas 299 and SUDHL-1 cells. In words: Sensitivity of ALCL cells to ALK inhibitors. Type of series: cell-based, human.
The test system of a further series is pERK in SUDHL-1 cells. In words: Western blot of pERK in SUDHL-1 cells. The following applies: SUDHL-1, 3 hrs. Format: cell-based, human. On the procedure:
as §2, §3

Another series relates to Karpas 299 tumors. As to the kind of experiment: Karpas 299 subcutaneous tumors in mice, tumor HLA and PD-L1 by flow cytometry. The following applies: Karpas 299 tumors, daily oral gavage. Type of series: in vivo. On the procedure: Female NSG (NOD.Cg-Prkdc^scidIl2rg^tm1Wj1/SzJ) and NRG (NOD.Cg-Rag1^tm1MomIl2rg^tm1Wj1/SzJ) mice were purchased from the Jackson Laboratory or MSKCC breeding facility at 5-10 weeks old. For RET and ALK experiments, 2.5-6×10^6 tumor cells were subcutaneously injected into the flank of mice and when tumors were palpable, mice were treated daily with drug or vehicles through oral gavage. At day 7, tumors were harvested and flow cytometry was run to determine effect of inhibitors on HLA and PD-L1 on the tumor cells.
The highly immunodeficient NRG (NOD-Rag1null IL2rgnull) mice were subcutaneously injected with 2.5×10^6 luciferase tagged TPC1 cells in their right flank. […] Afterwards, cells were immediately harvested and stained with antibodies against HLA-A*02:01 and HLA-ABC.
All animal experiments were conducted in accordance with and the approval of the MSKCC IACUC (Institutional Animal Care and Use Committee) protocols. Female NSG (NOD. Cg-Prkdc^scidIl2rg^tm1Wj1/SzJ) and NRG (NOD.Cg-Rag1^tm1MomIl2rg^tm1Wj1/SzJ) mice were purchased from the Jackson Laboratory at 5-10 weeks old. For experiments in vivo with RET and ALK, 2.5-6×10^6 tumor cells in PBS were subcutaneously injected into the flank of mice. When tumors were palpable (2-3 mm), mice were treated daily with drugs or vehicles through oral gavage of drugs in 200 ul of water. At day 4 or 7, tumors were harvested and flow cytometry was conducted to determine the effect of inhibitors on HLA and PD-L1 on the tumor cells. […] TPC1 cells were transduced with luciferase and GFP on an SFG vector and this allowed gating of the tumor cells in flow cytometry.

The test system of the next series is SKOV3 cells. As to the kind of experiment: Surface HLA on SKOV3 cells. Type of series: cell-based, human. On the procedure: as §1
Experiments in this Example were performed as described in Section 6.1.2.

A further series has as its system TPC1 cells. In words: ADCC chromium-51 release assay with ESK1 and human PBMCs on inhibitor-pretreated TPC1 cells. The following applies: TPC1 pretreated 72 hrs with 100 nM trametinib, at 3 or 4 E:T ratios. Format: cell-based. On the procedure:
Peripheral blood mononuclear cells were derived from healthy donors by Ficoll density centrifugation after receiving informed consent on Memorial Sloan Kettering Institutional Review board-approved protocols. TPC1 cells treated with RET inhibitor drugs and DMSO control were labeled with chromium-51 and co-cultured with PBMCs and ESK (or its isotype control, hIgG1). Different E:T ratios were used and after 5 hrs of incubation at 37° C., the supernatant was harvested and chromium levels were measured by Chromium-51 release assay (Perkin Elmer). Higher chromium levels indicated higher levels of cytotoxicity.
After the addition of ESK and peripheral blood mononuclear cells for 5 hrs, chromium release was measured.
For each experiment reported, fresh peripheral blood mononuclear cells were derived from a healthy donor by Ficoll density centrifugation after receiving informed consent on Memorial Sloan Kettering Institutional Review Board-approved protocols. […] Cells were then labeled with 1 uCi/well chromium-51 for 1 hr at 37° C. […] Different effector:target ratios were used and after 5 hrs of incubation at 37° C., the supernatant was harvested and chromium levels were measured through standard chromium-51 release assay on a Top Count machine (Perkin Elmer).

For another series, the system named is Human T cells. In words: IFN-gamma ELISpot of peptide stimulated T cells. Format: cell-based. The following applies: T cells of HLA-A*02:01 positive healthy donors, autologous CD14+ cells presenting peptide. The text has this: Peripheral blood mononuclear cells were again derived from healthy donors after receiving informed consent (see above). T cells were isolated by Ficoll density centrifugation and stimulated with pools of peptides that were selected from the population of: (1) new peptides that appeared after RET inhibitor treatment, (2) peptides found on cells before RET inhibitor treatment, and (3) irrelevant peptides not found on the target cells. CD14^+ cells were isolated from PBMCs by negative immunomagnetic cell separation using an isolation kit (Miltenyi Biotec). CD14 cells were used for stimulation in week one and autologous dendritic cells were generated for use thereafter. The purity of the cells was always more than 98%. Monocyte-derived dendritic cells (DCs) were generated from CD14+ cells, by culturing the cells in RPMI 1640 medium supplemented with 1% AP, 500 units/mL recombinant IL-4, and 1,000 units/mL GM-CSF. On days 2 and 4 of the incubation, fresh medium with IL-4 and GM-CSF was either added or replaced half of the culture medium. On day 6, maturation cytokine cocktail was added (IL-4, GM-CSF, 500 IU/mL IL-1, 1,000 IU/mL IL-6, 10 ng/ml TNF-α, and 1 ug/mL PGE-2).
An interferon-gamma ELISpot was performed at the beginning of week three. For this HA-Multiscreen plates (Millipore) were coated with 100 uL of mouse anti-human IFN-gamma antibody (10 ug/mL; clone 1-D1K, Mabtech #3420-2A) in PBS, incubated overnight at 4° C., washed with PBS to remove unbound antibody, and blocked with RPMI 1640/10% autologous plasma (AP) for 2 h at 37° C. Purified CD3^+ T cells (>98% pure) were plated with either autologous CD14^+ (10:1 E:APC ratio) or autologous DCs (30:1 E:APC ratio), Various test peptides were added to the wells at 20 ug/mL. Negative control wells contained. APCs and T cells without peptides or with irrelevant peptides. Positive control wells contained T cells plus APCs plus 20 ug/mL phytohemagglutinin (PHA, Sigma). All conditions were done in triplicates. Microtiter plates were incubated for 20 h at 37° C. and then extensively washed with PBS/0.05% Tween and 100 uL/well biotinylated detection antibody against human IFN-γ (2 ug/mL; clone 7-B6-1; Mabtech) was added. Plates were incubated for an additional 2 h at 37° C. and spot development was done as described. Spot numbers were read and determined by Zellnet Consulting In. T cell killing of target cells was measured at week five as described in the section of ADCC above.

For series [3], the system named is JAK signaling (pSTAT1) in Karpas299 and TPC1 cells. In words: IFN-γ stimulation and ruxolitinib control in Karpas299 and TPC1 cells. Format: cell-based, human. On the procedure: Cells were harvested and stained with anti-HLA-A02 antibody (BB7-FITC) for flow cytometry. […] (B) Karpas299 and TPC1 cells were treated with DMSO, IFN-γ, or IFN-γ and RUX for 72 hours.
Supernatant media were harvested after treatment and analyzed by the Luminex device (Luminex Corporation, Austin, Tex.) for relevant cytokine secretion. […] On the left side of each panel is data after 24 hours. On the right side of each panel is data after 48 hours. […] The data points shown in this figure are in pairs for each condition. The data point pairs for each time point are, from left to right: DMSO, Rux, Alec, IFNg, and IFNg+Rux.

“Also recorded” adds a separate entry of the source.

On to `COc1cc2ncnc(Oc3cccc(NC(=O)Nc4cc(C(C)(C)C(F)(F)F)on4)c3)c2cc1OC` [CEP-32496], for which the “surface HLA” value with LC-2/ad cells and with TT cells was “minimal effects on HLA upregulation; also recorded: Small changes in cell surface HLA” in each case.

As to `Cc1cc(Nc2ncc(Cl)c(Nc3ccccc3S(=O)(=O)C(C)C)n2)c(OC(C)C)cc1C1CCNCC1` [ceritinib], the “cell surface HLA-A,B,C” value with SUDHL-1 cells and in the series on Karpas 299 cells was “cell surface HLA increased in both cell lines in a dose-dependent manner” each time. For the same compound, the “HLA and antigen processing machinery transcript levels (qPCR)” value in series [1] is “Increase in RNA levels of HLA and antigen processing machinery”. Further, the “HLA-A and beta-2-microglobulin protein levels (western blot)” value in [1] (Karpas 299 and SUDHL-1, 72 hrs) was “show increase in HLA-A and beta-2-microglobulin”. Besides, the pERK levels result was “shut down pERK levels” in the series with pERK in Karpas 299 cells, “slightly decreased pERK levels” in the series with pERK in H2228 cells, “minimal changes in pERK levels; also recorded: decreased pERK levels very slightly” with pERK in H2228 cells (listed as Ceritinib) and “shut down pERK levels” in the series with pERK in SUDHL-1 cells. In addition, the “sensitivity of cells to ceritinib compared with crizotinib” value in [2] was “more sensitive to ceritinib than crizotinib, and died at lower concentrations”.

In the case of `C[C@@H](Oc1cc(-c2cnn(C3CCNCC3)c2)cnc1N)c1c(Cl)ccc(F)c1Cl` [crizotinib], the “cell surface HLA-A,B,C” value with SUDHL-1 cells is given as “increased surface HLA in a dose-related manner; also recorded: increases in cell surface HLA”; with Karpas 299 cells, “increased levels of surface HLA-A,B,C; also recorded: increased levels of surface HLA class I complexes; also recorded: increases in cell surface HLA”. The “tumor PD-L1 levels in vivo” value with Karpas 299 tumors is reported as “PD-L1 levels decreased with increasing doses; also recorded: PD-L1 levels decreased in vivo”. Also, the “tumor cell surface HLA-A,B,C in vivo” value with Karpas 299 tumors is given as “increased slightly in a dose-response manner, though not all mice responded; also recorded: increased modestly in a dose-dependent manner”. The “HLA and antigen processing machinery transcript levels (qPCR)” value in series [1] was “showed increases in HLA and antigen processing machinery transcript levels”. Further, in the series on Karpas 299 cells (Karpas 299), the “surface HLA-E levels” value is given as “did not change”. Further, in the series on Karpas 299 cells (Karpas 299, 1 uM, 72 hour incubation), the “HLA levels increase compared to control cells treated with DMSO” value is on record as 4 fold. Further, the pERK levels result in the series with pERK in Karpas 299 cells is “dose-related reduction of pERK at 3 hours; also recorded: dose-related, reduction of pERK at 3 hours”; in the series with pERK in H2228 cells it was “did not change pERK levels”; in the series with pERK in H2228 cells (listed as Crizotinib), “does not decrease pERK levels”; with pERK in SUDHL-1 cells, “inhibited pERK expression”.

`CS(=O)(=O)CCNCc1ccc(-c2ccc3ncnc(Nc4ccc(OCc5cccc(F)c5)c(Cl)c4)c3c2)o1` [lapatinib]: the HLA upregulation entry in the series on SKOV3 cells is recorded as “upregulated HLA”.

As to `CC(=O)Nc1cccc(-n2c(=O)n(C3CC3)c(=O)c3c(Nc4ccc(I)cc4F)n(C)c(=O)c(C)c32)c1` [trametinib], in the series with TPC1 cells, the “improved lysis by ESK1” value is listed as “about 10%”.

Consider “GRKPPLLKK (irrelevant peptide) [GRKPPLLKK (SEQ ID NO:9), irrelevant peptide, negative control]”, for which the “T cell mediated IFN gamma response (ELISpot)” value in the series on Human T cells is on record as “No response”.

Turning to “IFNγ: interferon gamma used as positive control”, the “phosphorylated STAT1 (pSTAT1)” value in [3] (Karpas299 and TPC1, IFN-γ or IFN-γ and RUX, 72 hours) is recorded as “upregulated in both cell lines”. For the same compound, in series [3] (Karpas299 and TPC1, IFNγ 100 ng/ml, ruxolitinib 1000 nm), the “IL4 and IL6 secretion” value is “increased both IL4 and IL6”.

With “ILDKKVEKV (control peptide) [ILDKKVEKV (SEQ ID NO:7), control peptide found before drug treatment on TPC1 cells]”, the “T cell mediated IFN gamma response (ELISpot)” value with Human T cells is given as “No response”.

Turning to “ILQAHLHSL (control peptide) [ILQAHLHSL (SEQ ID NO:8), control peptide found before drug treatment on TPC1 cells]”, the “T cell mediated IFN gamma response (ELISpot)” value with Human T cells is on record as “No response”.

Take “TYLEKAIKI (control peptide) [TYLEKAIKI (SEQ ID NO:6), control peptide found before drug treatment on TPC1 cells]”: the “T cell mediated IFN gamma response (ELISpot)” value in the series with Human T cells is given as “No response”.
